Experimental data reported in the NIST ThermoML archive (doi:10.1016/j.jct.2006.06.005).
± gives the expanded uncertainty stated by the source.

Assay: xn = mol fraction of the nth substance listed
Settings: 101 kPa, Liquid

Which results are given for `CN1CCCC1=O` [N-methylpyrrolidone] + c1ccccc1?
mass density (303.15 K, x2 = 0): 1023.47 ± 0.53 kg/m3; viscosity (303.15 K, x2 = 0): 1.554 ± 0.037 mPa·s; mass density (303.15 K, x2 = 0.1239): 1008.67 ± 0.45 kg/m3; viscosity (303.15 K, x2 = 0.1239): 1.357 ± 0.033 mPa·s; mass density (303.15 K, x2 = 0.2409): 993.24 ± 0.42 kg/m3; viscosity (303.15 K, x2 = 0.2409): 1.222 ± 0.03 mPa·s; mass density (303.15 K, x2 = 0.3523): 978.06 ± 0.45 kg/m3; viscosity (303.15 K, x2 = 0.3523): 1.102 ± 0.027 mPa·s; mass density (303.15 K, x2 = 0.4584): 962.87 ± 0.47 kg/m3; viscosity (303.15 K, x2 = 0.4584): 0.991 ± 0.025 mPa·s; mass density (303.15 K, x2 = 0.5594): 947.6 ± 0.5 kg/m3; viscosity (303.15 K, x2 = 0.5594): 0.899 ± 0.023 mPa·s; mass density (303.15 K, x2 = 0.6557): 931.99 ± 0.54 kg/m3; viscosity (303.15 K, x2 = 0.6557): 0.809 ± 0.021 mPa·s; mass density (303.15 K, x2 = 0.7476): 916.33 ± 0.58 kg/m3; viscosity (303.15 K, x2 = 0.7476): 0.729 ± 0.019 mPa·s; mass density (303.15 K, x2 = 0.8354): 900.43 ± 0.61 kg/m3; viscosity (303.15 K, x2 = 0.8354): 0.655 ± 0.017 mPa·s; mass density (303.15 K, x2 = 0.9195): 884.33 ± 0.66 kg/m3; viscosity (303.15 K, x2 = 0.9195): 0.585 ± 0.016 mPa·s; mass density (313.15 K, x2 = 0): 1014.55 ± 0.5 kg/m3; viscosity (313.15 K, x2 = 0): 1.332 ± 0.032 mPa·s; mass density (313.15 K, x2 = 0.1239): 999.64 ± 0.42 kg/m3; viscosity (313.15 K, x2 = 0.1239): 1.163 ± 0.029 mPa·s; mass density (313.15 K, x2 = 0.2409): 984.1 ± 0.45 kg/m3; viscosity (313.15 K, x2 = 0.2409): 1.049 ± 0.026 mPa·s; mass density (313.15 K, x2 = 0.3523): 968.78 ± 0.47 kg/m3; viscosity (313.15 K, x2 = 0.3523): 0.952 ± 0.024 mPa·s; mass density (313.15 K, x2 = 0.4584): 953.43 ± 0.5 kg/m3; viscosity (313.15 K, x2 = 0.4584): 0.858 ± 0.022 mPa·s; mass density (313.15 K, x2 = 0.5594): 937.99 ± 0.53 kg/m3; viscosity (313.15 K, x2 = 0.5594): 0.779 ± 0.02 mPa·s; mass density (313.15 K, x2 = 0.6557): 922.17 ± 0.57 kg/m3; viscosity (313.15 K, x2 = 0.6557): 0.703 ± 0.018 mPa·s; mass density (313.15 K, x2 = 0.7476): 906.29 ± 0.61 kg/m3; viscosity (313.15 K, x2 = 0.7476): 0.636 ± 0.017 mPa·s; mass density (313.15 K, x2 = 0.8354): 890.16 ± 0.65 kg/m3; viscosity (313.15 K, x2 = 0.8354): 0.573 ± 0.016 mPa·s; mass density (313.15 K, x2 = 0.9195): 873.83 ± 0.69 kg/m3; viscosity (313.15 K, x2 = 0.9195): 0.519 ± 0.014 mPa·s; mass density (323.15 K, x2 = 0): 1005.66 ± 0.47 kg/m3; viscosity (323.15 K, x2 = 0): 1.16 ± 0.029 mPa·s; mass density (323.15 K, x2 = 0.1239): 990.6 ± 0.45 kg/m3; viscosity (323.15 K, x2 = 0.1239): 1.015 ± 0.025 mPa·s; mass density (323.15 K, x2 = 0.2409): 974.95 ± 0.47 kg/m3; viscosity (323.15 K, x2 = 0.2409): 0.915 ± 0.023 mPa·s; mass density (323.15 K, x2 = 0.3523): 959.51 ± 0.5 kg/m3; viscosity (323.15 K, x2 = 0.3523): 0.834 ± 0.021 mPa·s; mass density (323.15 K, x2 = 0.4584): 943.96 ± 0.53 kg/m3; viscosity (323.15 K, x2 = 0.4584): 0.753 ± 0.02 mPa·s; mass density (323.15 K, x2 = 0.5594): 928.33 ± 0.56 kg/m3; viscosity (323.15 K, x2 = 0.5594): 0.684 ± 0.018 mPa·s; mass density (323.15 K, x2 = 0.6557): 912.31 ± 0.6 kg/m3; viscosity (323.15 K, x2 = 0.6557): 0.62 ± 0.017 mPa·s; mass density (323.15 K, x2 = 0.7476): 896.21 ± 0.64 kg/m3; viscosity (323.15 K, x2 = 0.7476): 0.56 ± 0.015 mPa·s; mass density (323.15 K, x2 = 0.8354): 879.84 ± 0.68 kg/m3; viscosity (323.15 K, x2 = 0.8354): 0.505 ± 0.014 mPa·s; mass density (323.15 K, x2 = 0.9195): 863.26 ± 0.72 kg/m3; viscosity (323.15 K, x2 = 0.9195): 0.458 ± 0.013 mPa·s; mass density (333.15 K, x2 = 0): 996.71 ± 0.46 kg/m3; viscosity (333.15 K, x2 = 0): 1.022 ± 0.026 mPa·s; mass density (333.15 K, x2 = 0.1239): 981.51 ± 0.47 kg/m3; viscosity (333.15 K, x2 = 0.1239): 0.895 ± 0.023 mPa·s; mass density (333.15 K, x2 = 0.2409): 965.76 ± 0.5 kg/m3; viscosity (333.15 K, x2 = 0.2409): 0.807 ± 0.021 mPa·s; mass density (333.15 K, x2 = 0.3523): 950.17 ± 0.53 kg/m3; viscosity (333.15 K, x2 = 0.3523): 0.735 ± 0.019 mPa·s; mass density (333.15 K, x2 = 0.4584): 934.42 ± 0.56 kg/m3; viscosity (333.15 K, x2 = 0.4584): 0.665 ± 0.018 mPa·s; mass density (333.15 K, x2 = 0.5594): 918.6 ± 0.59 kg/m3; viscosity (333.15 K, x2 = 0.5594): 0.604 ± 0.016 mPa·s; mass density (333.15 K, x2 = 0.6557): 902.36 ± 0.63 kg/m3; viscosity (333.15 K, x2 = 0.6557): 0.548 ± 0.015 mPa·s; mass density (333.15 K, x2 = 0.7476): 886.02 ± 0.67 kg/m3; viscosity (333.15 K, x2 = 0.7476): 0.498 ± 0.014 mPa·s; mass density (333.15 K, x2 = 0.8354): 869.42 ± 0.71 kg/m3; viscosity (333.15 K, x2 = 0.8354): 0.451 ± 0.013 mPa·s; mass density (333.15 K, x2 = 0.9195): 852.58 ± 0.75 kg/m3; viscosity (333.15 K, x2 = 0.9195): 0.41 ± 0.013 mPa·s; mass density (343.15 K, x2 = 0): 987.75 ± 0.48 kg/m3; viscosity (343.15 K, x2 = 0): 0.908 ± 0.023 mPa·s; mass density (343.15 K, x2 = 0.1239): 972.41 ± 0.5 kg/m3; viscosity (343.15 K, x2 = 0.1239): 0.797 ± 0.021 mPa·s; mass density (343.15 K, x2 = 0.2409): 956.53 ± 0.53 kg/m3; viscosity (343.15 K, x2 = 0.2409): 0.712 ± 0.019 mPa·s; mass density (343.15 K, x2 = 0.3523): 940.78 ± 0.55 kg/m3; viscosity (343.15 K, x2 = 0.3523): 0.656 ± 0.017 mPa·s; mass density (343.15 K, x2 = 0.4584): 924.85 ± 0.58 kg/m3; viscosity (343.15 K, x2 = 0.4584): 0.593 ± 0.016 mPa·s; mass density (343.15 K, x2 = 0.5594): 908.82 ± 0.62 kg/m3; viscosity (343.15 K, x2 = 0.5594): 0.539 ± 0.015 mPa·s; mass density (343.15 K, x2 = 0.6557): 892.35 ± 0.66 kg/m3; viscosity (343.15 K, x2 = 0.6557): 0.491 ± 0.014 mPa·s; mass density (343.15 K, x2 = 0.7476): 875.8 ± 0.7 kg/m3; viscosity (343.15 K, x2 = 0.7476): 0.447 ± 0.013 mPa·s; mass density (343.15 K, x2 = 0.8354): 858.93 ± 0.74 kg/m3; viscosity (343.15 K, x2 = 0.8354): 0.405 ± 0.012 mPa·s; mass density (343.15 K, x2 = 0.9195): 841.81 ± 0.79 kg/m3; viscosity (343.15 K, x2 = 0.9195): 0.369 ± 0.012 mPa·s
